Data published in US20260234123A1, “Inhibitors of NLRP3” (Mwyngil Therapeutics, Inc., priority 2023, published 2026).

tested on: IL1b release THP-1; assay: IL1b release THP-1 (ELISA); assay type: cell-based; conditions: Homo sapiens, THP-1, read-out: THP 1 IL 1b, EC50, μM
Experimental: Example A. Primary Assays Used to Determine IL1b Release THP-1 (ELISA)
• Microbiological safety cabinet, classII (NuAire, USA) • CO2 incubator (VWR Science, USA) • Countess Automated Cell Counter (Invitrogen, USA, cat. number C10227) • Centrifuge CM 6M (Elmi, Latvia) • Serological pipettes 2, 5, 10, 25, 50, 100 ml sterile (Santa Cruz Biotechnology, Inc., USA, sc-200277, sc-200279, sc-200281, sc-200283, Sc-213234, sc-516777) • Single and multichannel pipettes 0.2-10 μL, 50-1200 μL (Eppendorf AG-Hamburg, Germany) • 50 mL PP sterile tubes (Greiner, cat. Number 210261).
• RPMI-1640 (PanEco, C330) • Sodium pyruvate (Paneco, cat. number Φ023) • Non-Essential amino acids 50× (Paneco, Φ116) • Essential amino acids 50× (Paneco, Φ115/50) • FBS (Hyclone Laboratories Inc, USA, SV30160.03) • Antibiotic-antimycotic (Gibco, USA, 15240-062) • 2-mercaptoethanol 1000×55 mM (Gibco, USA, 21985-023) • LPS-EB ultrapure (invivogen, cat. number tlrl-3pelps) • Nigericin (Sigma, cat. number N7143) • ELISA kit, IL-1beta (Cat #A-8766, Interleukin-1 beta-EIA-BEST, Vector Best). LPS Preparation (5 mg/ml): • 1. Add 1 ml of endotoxin-free water according manufacturer's protocol • 2. Vortex until complete solubilization • 3. Aliquote and store at […] for long term storage.
• 1. Add methanol to 10 mg of powder to produce the 10 mM Nigericin solution • 2. Vortex until complete solubilization • 3. Store at 4° C.
THP-1 cells were propagated in RPMI-1640 (10% FBS, Antibiotic-antimycotic 1×, non-Essential amino acids 1×, Essential amino acids 1×, Sodium pyruvate 2×, 2-mercaptoethanol 0.05 mM) at 37° C. and at 5% CO2 in an incubator.
• 1. THP-1 cells were spined at 100 g for 5 min in 50 ml tube. • 2. THP-1 cells were resuspended in warm culture medium (w/o FBS, w/o Antibiotic-antimycotic, non-Essential amino acids 1×, Essential amino acids 1×, Sodium pyruvate 2×) to the concentration 1,3×10^6 cells. • 3. THP-1 cells were primed in tube with 1 μg/ml of LPS for 4 h at 37° C. and at 5% CO2 in an incubator. • 4. THP-1 cells were stimulated with 10 μM of Nigericin (Cat #N7143-10 MG, Sigma Aldrich) for 2 h at 37° C. and at 5% CO2 in an incubator. • 5. After the full activation, the supernatant was collected and the levels of IL-1β were assessed via ELISA according manufacturer instructions (Cat #A-8766, Vector Best).
The average EC50 values are shown in Table A, wherein “A” corresponds to EC50: A≤0.5 μM, “B” corresponds to 0.5 μM<EC50≤1.0 μM, “C” 1.0 μM<EC50≤5.0 μM, “D” corresponds to 5.0 μM<EC50≤30 μM and “E” corresponds to EC50>30 μM.

| SMILES | EC50 |
| --- | --- |
| Cc1cc(-c2ccc(C(F)(F)F)cc2NS(C)(=O)=O)nnc1N[C@@H]1CCCN(C2CCCCC2)C1 [Compound 32, (R)—N-(2-(6-((1-Cyclohexylpiperidin-3-yl)amino)-5-methylpyridazin-3-yl)-5-(trifluoromethyl)phenyl) methanesulfonamide] | < 0.5 µM |
| Cc1cc(-c2ccc(C(F)(F)F)cc2NS(C)(=O)=O)nnc1N[C@@H]1CCCN(C(C)C)C1 [Compound 25, (R)—N-(2-(6-((1-Isopropylpiperidin-3-yl)amino)-5-methylpyridazin-3-yl)-5-(trifluoromethyl)phenyl) methanesulfonamide] | < 0.5 µM |

same assay, conditions: Homo sapiens; average EC50; THP-1 cells primed with 1 μg/ml LPS 4 h, stimulated with 10 μM Nigericin 2 h; IL-1β in supernatant by ELISA; read-out: THP 1 IL 1b, EC50

| SMILES | EC50 |
| --- | --- |
| Cc1cc(-c2ccc(C(F)(F)F)cc2NC(C)C)nnc1N[C@@H]1CCCN(C(C)C)C1 [Compound 115, 6-[2-(isopropylamino)-4-(trifluoromethyl)phenyl]-N-[(3R)-1-isopropyl-3-piperidyl]-4-methyl-pyridazin-3-amine] | < 0.5 µM |
| CCN1C[C@H](F)C[C@@H](Nc2nnc(-c3ccc(C(F)(F)F)cc3NS(C)(=O)=O)cc2C)C1 [Compound 66, N-(2-(6-(((3R,5R)-1-ethyl-5-fluoropiperidin-3-yl)amino)-5-methylpyridazin-3-yl)-5-(trifluoromethyl)phenyl) methanesulfonamide] | 0.5 to 1 µM |
| Cc1cc(N[C@@H]2CCCNC2)nnc1-c1ccc(C(F)(F)F)cc1NS(C)(=O)=O [Compound 71, N-[2-[4-methyl-6-[[(3R)-3-piperidyl]amino]pyridazin-3-yl]-5-(trifluoromethyl)phenyl]methanesulfon-amide] | 1 to 5 µM |
| Cc1cc(-c2ccc(C(F)(F)F)cc2NS(C)(=O)=O)nnc1N[C@@H]1CCCNC1 [Compound 67, (R)—N-(2-(5-methyl-6-(piperidin-3-ylamino)pyridazin-3-yl)-5-(trifluoromethyl)phenyl) methanesulfonamide] | 1 to 5 µM |
| CC(C)=CCN1CCC[C@@H](Nc2cc(C)c(-c3ccc(C(F)(F)F)cc3NS(C)(=O)=O)nn2)C1 [Compound 48, (R)—N-(2-(4-Methyl-6-((1-(3-methylbut-2-en-1-yl)piperidin-3-yl)amino)pyridazin-3-yl)-5-(trifluoromethyl)phenyl) methanesulfonamide] | 0.5 to 1 µM |
| Cc1cc(-c2ccc(C(F)(F)F)c3nn[nH]c23)nnc1N[C@@H]1CCCN(C)C1 [Compound 21, 4-methyl-N-[(3R)-1-methyl-3-piperidyl]-6-[7-(trifluoromethyl)-3H-benzotriazol-4-yl]pyridazin-3-amine] | 5 to 30 µM |
| CN1CCC[C@@H](Nc2nnc(-c3ccc(C(F)(F)F)cc3NS(C)(=O)=O)c3c2C2CCC3CC2)C1 [Compound 54, N-[2-[6-[[(3R)-1-methyl-3-piperidyl]amino]-4,5-diazatricyclo[6.2.2.02,7]dodeca-2(7),3,5-trien-3-yl]-5-(trifluoromethyl)phenyl]methanesulfon-amide] | 5 to 30 µM |
| Cc1cc(-c2ccc(C(F)(F)F)c(N)c2N)nnc1N[C@@H]1CCCN(C)C1 [Compound 103, 3-[5-methyl-6-[[(3R)-1-methyl-3-piperidyl]amino]pyridazin-3-yl]-6-(trifluoromethyl)benzene-1,2-diamine] | 5 to 30 µM |
| Cc1cc(N[C@@H]2CCCN(C)C2)nnc1-c1ccc(C(F)(F)F)c2nn[nH]c12 [Compound 20, (R)-5-Methyl-N-(1-methylpiperidin-3-yl)-6-(4-(trifluoromethyl)-1H-benzo[d][1,2,3]triazol-7-yl)pyridazin-3-amine] | > 30 µM |
| CCN1CCC[C@@H](Nc2nnc(-c3ccc(C(F)(F)F)c4cn[nH]c34)cc2C)C1 [Compound 18, (R)—N-(1-ethylpiperidin-3-yl)-4-methyl-6-(4-(trifluoromethyl)-1H-indazol-7-yl)pyridazin-3-amine] | > 30 µM |
| Cc1cc(N[C@@H]2CCCN(C(C)C)C2)nnc1-c1ccc(C(F)(F)F)cc1NC(=O)C(C)(C)C [Compound 138, N-[2-[6-[[(3R)-1-isopropyl-3-piperidyl]amino]-4-methyl-pyridazin-3-yl]-5-(trifluoromethyl)phenyl]-2,2-dimethyl-propanamide] | 1 to 5 µM |
| Cc1cc(N[C@@H]2CCCN(C3CC3)C2)nnc1-c1ccc(C(F)(F)F)cc1NS(C)(=O)=O [Compound 36, N-[2-[6-[[(3R)-1-cyclopropyl-3-piperidyl]amino]-4-methyl-pyridazin-3-yl]-5-(trifluoromethyl)phenyl]methanesulfon-amide] | < 0.5 µM |
| CNc1cc(C(F)(F)F)ccc1-c1nnc(N[C@@H]2CCCN(C(C)C)C2)cc1C [Compound 108, N-[(3R)-1-isopropyl-3-piperidyl]-5-methyl-6-[2-(methylamino)-4-(trifluoromethyl)phenyl]pyridazin-3-amine] | < 0.5 µM |
| Cc1cc(N[C@@H]2CCCN(C)C2)nnc1-c1ccc(C(F)(F)F)c2cn[nH]c12 [Compound 14, (R)-5-Methyl-N-(1-methylpiperidin-3-yl)-6-(4-(trifluoromethyl)-1H-indazol-7-yl)pyridazin-3-amine] | 1 to 5 µM |
| Cc1cc(N[C@@H]2CCCN(C(C)C)C2)nnc1-c1ccc(C(F)(F)F)cc1NS(C)(=O)=O [Compound 27] | < 0.5 µM |
| CCN1CCC[C@@H](Nc2nnc(-c3ccc(C(F)(F)F)cc3NS(C)(=O)=O)c3c2C2CCC3CC2)C1 [Compound 30, (R)—N-(2-(4-((1-Ethylpiperidin-3-yl)amino)-5,6,7,8-tetrahydro-5,8-ethanophthalazin-1-yl)-5-(trifluoromethyl)phenyl) methanesulfonamide] | < 0.5 µM |
| CCN1CCC[C@@H](Nc2cc(C(F)(F)F)c(-c3ccc(C(F)(F)F)cc3NS(C)(=O)=O)nn2)C1 [Compound 49, N-[2-[6-[[(3R)-1-ethyl-3-piperidyl]amino]-4-(trifluoromethyl)pyridazin-3-yl]-5-(trifluoromethyl)phenyl]methanesulfon-amide] | 1 to 5 µM |
| CCNc1cc(C(F)(F)F)ccc1-c1nnc(N[C@@H]2CCCN(C(C)C)C2)cc1C [Compound 109, 6-[2-(ethylamino)-4-(trifluoromethyl)phenyl]-N-[(3R)-1-isopropyl-3-piperidyl]-5-methyl-pyridazin-3-amine] | < 0.5 µM |
| Cc1cc(-c2ccc(C(F)(F)F)cc2NC(=O)C(F)F)nnc1N[C@@H]1CCCN(C(C)C)C1 [Compound 120] | < 0.5 µM |
| CC(=O)Nc1cc(C(F)(F)F)ccc1-c1cc(C)c(N[C@@H]2CCCN(C(C)C)C2)nn1 [Compound 137, N-[2-[6-[[(3R)-1-isopropyl-3-piperidyl]amino]-5-methyl-pyridazin-3-yl]-5-(trifluoromethyl)phenyl]acetamide] | 1 to 5 µM |
| CNc1cc(C(F)(F)F)ccc1-c1cc(C)c(N[C@@H]2CCCN(C(C)C)C2)nn1 [Compound 119, N-[(3R)-1-isopropyl-3-piperidyl]-4-methyl-6-[2-(methylamino)-4-(trifluoromethyl)phenyl]pyridazin-3-amine] | < 0.5 µM |
| CCN1CCC[C@@H](Nc2cc(C)c(-c3ccc(C(F)(F)F)cc3NS(=O)(=O)C3CC3)nn2)C1 [Compound 65, (R)—N-(2-(6-((1-Ethylpiperidin-3-yl)amino)-4-methylpyridazin-3-yl)-5-(trifluoromethyl)phenyl) cyclopropanesulfonamide] | < 0.5 µM |
| Cc1cc(N[C@@H]2CCCN(C3CCOCC3)C2)nnc1-c1ccc(C(F)(F)F)cc1NS(C)(=O)=O [Compound 39] | < 0.5 µM |
| Cc1cc(N[C@@H]2CCCN(CC3CCCCC3)C2)nnc1-c1ccc(C(F)(F)F)cc1NS(C)(=O)=O [Compound 40, N-[2-[6-[[(3R)-1-(cyclohexylmethyl)-3-piperidyl]amino]-4-methyl-pyridazin-3-yl]-5-(trifluoromethyl)phenyl]methanesulfon-amide] | < 0.5 µM |
| CCN1CCC[C@@H](Nc2cc(C)c(-c3ccc(C(F)(F)F)cc3N)nn2)C1 [Compound 130, (R)-6-(2-Amino-4-(trifluoromethyl)phenyl)-N-(1-ethylpiperidin-3-yl)-5-methylpyridazin-3-amine] | < 0.5 µM |
